Assay results from patent US5648336A (University of Colorado, priority 1994, dated 1997).
Like-named read-outs stand apart in the source and are kept apart here. Square brackets hold non-standard residues; d marks the D form. Ends that are not written are not given here. Peptide text beside a SMILES is read from it. * marks the point of attachment. X1 = N=C(N)NCCC[C@@H](NC(=NC1CCCCC1)NC1CCCCC1)C(=O)*; Oic = O=C(O)[C@@H]1C[C@@H]2CCCC[C@@H]2N1; dIgl = N[C@@H](C(=O)O)C1Cc2ccccc2C1; Igl = N[C@H](C(=O)O)C1Cc2ccccc2C1; Hyp = O=C(O)[C@@H]1C[C@@H](O)CN1; 2Thi = N[C@@H](Cc1cccs1)C(=O)O

Experiments:
guinea pig ileum = tested on: guinea pig ileum
From the text: (§1) A change of one unit of pA2 value represents an order of magnitude change in potency.
(§2) On isolated smooth muscles, agonist potency is given as percent of BK potency; antagonist potency is given as pA2, and is underlined. In blood pressure assays, the number is the dose of peptide in micrograms that causes 50% reduction in the effect of BK intraarterially administered as a bolus mixture in a 500 g male rat; Ag indicates unquantitated agonist activity; Ant indicates unquantitated antagonist activity.

isolated rat uterus = tested on: isolated rat uterus
From the text: as §1, §2

B1 receptors = target: T1, B1 receptors (Oryctolagus cuniculus, UniProt P48748); assay: B1 receptor bioassay, rabbit aorta strips contracted with des-Arg9-BK; format: cell-based; conditions: 50% reduction of sustained contraction to 10^-7 M des-Arg9-BK; read-out: Rabbit Aorta p IC50 B1 receptors (converted)
T1 construct: The thorax was opened and the thoracic aorta carefully removed; from tissue; host or cells: rabbit thoracic aorta spiral strips
T1 sequence (P48748 1-352): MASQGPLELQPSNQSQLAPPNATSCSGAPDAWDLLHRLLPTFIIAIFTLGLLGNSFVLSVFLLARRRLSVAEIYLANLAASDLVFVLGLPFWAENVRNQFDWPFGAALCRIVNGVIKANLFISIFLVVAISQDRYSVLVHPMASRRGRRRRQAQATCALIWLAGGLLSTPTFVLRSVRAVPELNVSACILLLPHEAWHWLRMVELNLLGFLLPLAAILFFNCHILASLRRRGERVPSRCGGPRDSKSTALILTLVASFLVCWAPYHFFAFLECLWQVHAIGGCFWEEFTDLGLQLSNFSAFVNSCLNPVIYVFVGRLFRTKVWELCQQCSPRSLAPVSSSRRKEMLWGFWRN
Procedure: Male New Zealand white rabbits, weight range 2-3 kg, were killed by an overdose of pentobarbital i.v. The thorax was opened and the thoracic aorta carefully removed. […] The tissues were placed under 1 gm isometric tension and allowed to equilibrate for 1H. At time 1h, a concentration-effect curve was constructed to the selective B1 agonist des-Arg^9 -BK. This was repeated at time 3 hours. […] Once the contraction was sustained, the compound to be assayed was applied to the tissue bath in a cumulative manner. The concentration of the compound which produced a 50% reduction of the sustained contraction was calculated. The negative logarithm of this concentration was calculated and expressed as the […].

[1] = guinea pig ileum, vs double ED50 dose of bradykinin

Row | Compound | Ileum Activity, antagonist potency given as pA2 (guinea pig ileum) | Uterus Activity, antagonist potency given as pA2 (isolated rat uterus) | other results
1 | N=C(N)NCCC[C@@H](N)C(=O)N[C@@H](CCCNC(=N)N)C(=O)N1CCC[C@H]1C(=O)N1C[C@H](O)C[C@H]1C(=O)NCC(=O)N[C@@H](Cc1cccs1)C(=O)N[C@@H](CO)C(=O)N[C@@H](C(=O)N[C@@H](C(=O)N[C@@H](CCCNC(=N)N)C(=O)O)C1Cc2ccccc2C1)C1CCCC1 [Compound 9, DArg-Arg-Pro-Hyp-Gly-Thi-Ser-DCpg-DIglb-Arg] | 7.2 | 7.4 | 
2 | N=C(N)NCCC[C@@H](N)C(=O)N[C@@H](CCCNC(=N)N)C(=O)N1CCC[C@H]1C(=O)N1C[C@H](O)C[C@H]1C(=O)NCC(=O)N[C@H](C(=O)N[C@@H](CO)C(=O)N[C@@H](C(=O)N[C@@H](C(=O)N[C@@H](CCCNC(=N)N)C(=O)O)C1Cc2ccccc2C1)C1CCCC1)C1CCCC1 [Compound 11, DArg-Arg-Pro-Hyp-Gly-Cpg-Ser-DCpg-DIglb-Arg] |  |  | IC50 (B1 receptors): 398 nM
3 | N=C(N)NCCC[C@@H](N)C(=O)N[C@@H](CCCNC(=N)N)C(=O)N1CCC[C@H]1C(=O)N1C[C@H](O)C[C@H]1C(=O)NCC(=O)N[C@H](C(=O)N[C@@H](CO)C(=O)N1Cc2ccccc2C[C@@H]1C(=O)N[C@H](C(=O)N[C@@H](CCCNC(=N)N)C(=O)O)C1Cc2ccccc2C1)C1CCCC1 [Compound 12, DArg-Arg-Pro-Hyp-Gly-Cpg-Ser-DTic-Iglb-Arg] | 5.1 |  | Uterus Activity, agonist potency given as percent of BK potency (isolated rat uterus): 10.5%
4 | N=C(N)NCCC[C@@H](N)C(=O)N[C@@H](CCCNC(=N)N)C(=O)N1CCC[C@H]1C(=O)N1C[C@H](O)C[C@H]1C(=O)NCC(=O)N[C@H](C(=O)N[C@@H](CO)C(=O)N1Cc2ccccc2C[C@@H]1C(=O)N[C@@H](C(=O)N[C@@H](CCCNC(=N)N)C(=O)O)C1Cc2ccccc2C1)C1CCCC1 [Compound 13, DArg-Arg-Pro-Hyp-Gly-Cpg-Ser-DTic-DIglb-Arg] | 6.0 |  | Uterus Activity, agonist potency given as percent of BK potency (isolated rat uterus): 8.6%
5 | N=C(N)NCCC[C@@H](N)C(=O)N[C@@H](CCCNC(=N)N)C(=O)N1CCC[C@H]1C(=O)N1C[C@H](O)C[C@H]1C(=O)NCC(=O)N[C@@H](Cc1ccccc1)C(=O)N[C@@H](CO)C(=O)N[C@H](C(=O)N1[C@H](C(=O)N[C@@H](CCCNC(=N)N)C(=O)O)C[C@@H]2CCCC[C@@H]21)C1Cc2ccccc2C1 [Compound 14, DArg-Arg-Pro-Hyp-Gly-Phe-Ser-Iglb-Oic-Arg] (H-[dR]RP[Hyp]GFS[Igl][Oic]R-OH) | 5.1 | 6.5 | 
6 | N=C(N)NCCC[C@@H](N)C(=O)N[C@@H](CCCNC(=N)N)C(=O)N1CCC[C@H]1C(=O)N1C[C@H](O)C[C@H]1C(=O)NCC(=O)N[C@@H](Cc1ccccc1)C(=O)N[C@@H](CO)C(=O)N[C@@H](C(=O)N1[C@H](C(=O)N[C@@H](CCCNC(=N)N)C(=O)O)C[C@@H]2CCCC[C@@H]21)C1Cc2ccccc2C1 [Compound 15, DArg-Arg-Pro-Hyp-Gly-Phe-Ser-DIglb-Oic-Arg] (H-[dR]RP[Hyp]GFS[dIgl][Oic]R-OH) | 7.6 | 7.9 | IC50 (B1 receptors): 162 nM
7 | N=C(N)NCCC[C@@H](N)C(=O)N[C@@H](CCCNC(=N)N)C(=O)N1CCC[C@H]1C(=O)N1C[C@H](O)C[C@H]1C(=O)NCC(=O)N[C@H](C(=O)N[C@@H](CO)C(=O)N[C@@H](C(=O)N1[C@H](C(=O)N[C@@H](CCCNC(=N)N)C(=O)O)C[C@@H]2CCCC[C@@H]21)C1Cc2ccccc2C1)C1CCCC1 [Compound 24, DArg-Arg-Pro-Hyp-Gly-Cpg-Ser-DIglb-Oic-Arg] | 8.1 |  | IC50 (B1 receptors): 427 nM
8 | Cc1ccc(C[C@H](NC(=O)CNC(=O)[C@@H]2C[C@@H](O)CN2C(=O)[C@@H]2CCCN2C(=O)[C@H](CCCNC(=N)N)NC(=O)[C@H](N)CCCNC(=N)N)C(=O)N[C@@H](CO)C(=O)N[C@@H](C(=O)N2[C@H](C(=O)N[C@@H](CCCNC(=N)N)C(=O)O)C[C@@H]3CCCC[C@@H]32)C2Cc3ccccc3C2)c(C)c1 [Compound 26, DArg-Arg-Pro-Hyp-Gly-DMF-Ser-DIglb-Oic-Arg] | 6.6 | 7.3 | 
9 | N=C(N)NCCC[C@@H](N)C(=O)N[C@@H](CCCNC(=N)N)C(=O)N1CCC[C@H]1C(=O)N1C[C@H](O)C[C@H]1C(=O)NCC(=O)N[C@H](C(=O)N[C@@H](CO)C(=O)N1Cc2ccccc2C[C@@H]1C(=O)N(CC(=O)N[C@@H](CCCNC(=N)N)C(=O)O)C1Cc2ccccc2C1)C1CCCC1 [Compound 29, DArg-Arg-Pro-Hyp-Gly-Cpg-Ser-DTic-Nigb-Arg] | 7.6 | 8.1 | 
10 | N=C(N)NCCC[C@@H](N)C(=O)N[C@@H](CCCNC(=N)N)C(=O)N1CCC[C@H]1C(=O)N1C[C@H](O)C[C@H]1C(=O)NCC(=O)N[C@@H](C(=O)N[C@@H](CO)C(=O)N[C@@H](C(=O)N1[C@H](C(=O)N[C@@H](CCCNC(=N)N)C(=O)O)C[C@@H]2CCCC[C@@H]21)C1Cc2ccccc2C1)C1Cc2ccccc2C1 [Compound 30, DArg-Arg-Pro-Hyp-Gly-DIglb-Ser-DIglb-Oic-Arg] |  |  | IC50 (B1 receptors): > 10000 nM
11 | N=C(N)NCCC[C@H](NC(=O)[C@@H]1C[C@@H]2CCCC[C@@H]2N1C(=O)[C@@H](NC(=O)[C@H](CO)NC(=O)[C@H](Cc1cccs1)NC(=O)CNC(=O)[C@@H]1C[C@@H](O)CN1C(=O)[C@@H]1CCCN1C(=O)[C@H](CCCNC(=N)N)NC(=O)[C@@H](CCCNC(=N)N)NC(=O)C12CC3CC(CC(C3)C1)C2)C1Cc2ccccc2C1)C(=O)O [Compound 54, Aca-DArg-Arg-Pro-Hyp-Gly-Thi-Ser-Iglb-Oic-Arg] |  | 5.8 | 
12 | N=C(N)NCCC[C@H](NC(=O)[C@@H]1C[C@@H]2CCCC[C@@H]2N1C(=O)[C@H](NC(=O)[C@H](CO)NC(=O)[C@H](Cc1cccs1)NC(=O)CNC(=O)[C@@H]1C[C@@H](O)CN1C(=O)[C@@H]1CCCN1C(=O)[C@H](CCCNC(=N)N)NC(=O)[C@@H](CCCNC(=N)N)NC(=NC1CCCCC1)NC1CCCCC1)C1Cc2ccccc2C1)C(=O)O [Compound 58, Dcg-DArg-Arg-Pro-Hyp-Gly-Thi-Ser-DIglb-Oic-Arg] (X1-RP[Hyp]G[2Thi]S[dIgl][Oic]R-OH) | 5.4 |  | Uterus Activity, agonist potency given as percent of BK potency (isolated rat uterus): 3.0%
13 | N=C(N)NCCC[C@H](NC(=O)[C@@H]1C[C@@H]2CCCC[C@@H]2N1C(=O)[C@H](NC(=O)[C@H](CO)NC(=O)[C@H](Cc1cccs1)NC(=O)CNC(=O)[C@@H]1C[C@@H](O)CN1C(=O)[C@@H]1CCCN1C(=O)[C@H](CCCNC(=N)N)NC(=O)[C@@H](CCCNC(=N)N)NC(=O)C1=CN2CCC1CC2)C1Cc2ccccc2C1)C(=O)O [Compound 59, Dhq-DArg-Arg-Pro-Hyp-Gly-Thi-Ser-DIglb-Oic-Arg] | 7.2 | 8.1 | 
14 | DArg-Arg-Pro-Hyp-Gly-Thi-Ser-DIgl-Iglb-Arg [Compound 19] |  |  | Ileum Activity, antagonist potency given as pA2 (guinea pig ileum; [1]): 6.7; Uterus Activity, agonist potency given as percent of BK potency (isolated rat uterus; isolated rat uterus): 9.1%
15 | DArg-Arg-Pro-Hyp-Gly-Thi-Ser-Higb-Oic-Arg [Compound 125] |  |  | Ileum Activity, antagonist potency given as pA2 (guinea pig ileum; [1]): 6.6; Uterus Activity, agonist potency given as percent of BK potency (isolated rat uterus; isolated rat uterus): 9.4%
16 | RPPGFSPFR [bradykinin, Arg^1 -Pro^2 -Pro^3 -Gly^4 -Phe^5 -Ser^6 -Pro^7 -Phe^8 -Arg^9, reference compound] |  |  | pD2 value (negative logarithm of the dose causing half-maximal contraction) (guinea pig ileum; guinea pig ileum): 7.4; pD2 value (negative logarithm of the dose causing half-maximal contraction) (isolated rat uterus; rat uterus): 7.9
